This is an account of results in US5140018A, “1,3,2-benzodithiazole-1-oxide compounds” (Abbott Laboratories, priority 1991, dated 1992).

Values after ≈ are worked out from the molar mass of the structure shown.

Common to all, as to assay type: cell-based
Test [1] relates to Torulopsis glabrata ATCC 15545. Nature of the test: In vitro antifungal MIC, Torulopsis glabrata ATCC 15545. To be noted: Nakaseomyces glabratus, ATCC15545; Torulopsis glabrata ATCC 15545; 35°-37° C., 48 hours; read-out: MIC. The protocol: (§1) The in vitro antifungal activity of the compounds of the present invention against a variety of fungiwas determined as follow: Test medium was prepared by dissolving first 5 g of dextrose and then 6.7 g of Bacto Yeast Nitrogen Base® (commercially available from Difco Laboratories) in 100 mL of distilled water. The solution was filter-sterilized and diluted 1:10 with 0.01M pH 8.0 phosphate buffer solution, and the final pH of the medium adjusted to about pH 7.0 when necessary with either 0.1N hydrochloric acid solution of 0.1N sodium hydroxide solution. […] These concentrated stock solutions were diluted to a concentration of 200 μg/mL (twice the highest concentration desired for testing) with the test medium. Amphotericin B, similarly prepared, was used as a reference antifungal agent.
(§2) The test organisms were then inoculated into test tubes containing approximately 3 to 10 mL of test medium and the test tubes incubated overnight at 37° C. A sample of each overnight culture was placed in a test tube and diluted using the test medium until a reading of 95% transmittance was obtained in a conventional UV/visible spectrophotometer set to 560 nm. The adjusted cultures were then diluted 1:50 with test medium. These diluted cultures served as the inocula for the assays which follow and were used within 15 minutes of preparation.
(§3) Next, 2-fold serial dilutions of each test compound in test medium were prepared in a 96-well microtiter plate using calibrated microdiluters attached to an automatic (hand-held) diluter (available from Dynatech Laboratories).
(§4) Using sterile calibrated droppers or a multi-point dispenser, the diluted inoculum suspension was added to each of the wells in the plate. When inoculation was complete, the microtiter tray was covered with a plastic plate sealer to minimize evaporation. After the plate had been sealed, a hole was made above each well with a sterile 26-gauge syringe needle in order to allow gas exchange. If plate sealers were not available, the microtiter trays were stacked in groups of five or less with an empty tray on top. The microtiter trays were then incubated in a humidified chamber at 35°-37° C. for 48 hours or until growth was visible in the growth control wells.
(§5) The minimum inhibitory concentration (MIC) was defined as the lowest concentration of test compound yielding no growth, a slight haze or sparsely isolated colonies on the inoculum spot as compared to the growth control containing no test compound.

Test [2] has as its system Cryptococcus albidus ATCC 34140. The experiment in a line: In vitro antifungal MIC, Cryptococcus albidus ATCC 34140. The settings on record: Naganishia albida, ATCC34140; Cryptococcus albidus ATCC 34140; 35°-37° C., 48 hours; read-out: MIC. The protocol:
as §1, §2, §3, §4, §5

The test system of test [3] is Candida albicans ATCC 10231. Nature of the test: In vitro antifungal MIC, Candida albicans ATCC 10231. The settings on record: ATCC10231; Candida albicans ATCC 10231; 35°-37° C., 48 hours; read-out: MIC. On the procedure: as §1, §2, §3, §4, §5
The test system of a further test is Candida albicans 579A. Nature of the test: In vitro antifungal MIC, Candida albicans 579A. The settings on record: Candida albicans 579A; 35°-37° C., 48 hours; read-out: MIC. The protocol: as §1, §2, §3, §4, §5
A further test has as its system Candida kefyr ATCC 28838. Nature of the test: In vitro antifungal MIC, Candida kefyr ATCC 28838. The settings on record: Kluyveromyces marxianus, ATCC28838; Candida kefyr ATCC 28838; 35°-37° C., 48 hours; read-out: MIC. The protocol: as §1, §2, §3, §4, §5
Test [4] deals with Candida albicans ATCC 38247. The experiment in a line: In vitro antifungal MIC, Candida albicans ATCC 38247. To be noted: ATCC38247; Candida albicans ATCC 38247; 35°-37° C., 48 hours; read-out: MIC. On the procedure:
as §1, §2, §3, §4, §5

Test [5] deals with Aspergillus niger ATCC 16404. Nature of the test: In vitro antifungal MIC, Aspergillus niger ATCC 16404. The settings on record: ATCC16404; Aspergillus niger ATCC 16404; 35°-37° C., 48 hours; read-out: MIC. On the procedure:
as §1, §2, §3, §4, §5

Test [6] relates to Candida albicans ATCC 62376. Nature of the test: In vitro antifungal MIC, Candida albicans ATCC 62376. To be noted: ATCC62376; Candida albicans ATCC 62376; 35°-37° C., 48 hours; read-out: MIC. On the procedure:
as §1, §2, §3, §4, §5

Test [7] relates to Candida tropicalis NRRL-Y-112. The experiment in a line: In vitro antifungal MIC, Candida tropicalis NRRL-Y-112. To be noted: NRRLY112; Candida tropicalis NRRL-Y-112; 35°-37° C., 48 hours; read-out: MIC. The protocol: as §1, §2, §3, §4, §5
In a further test the test system is Candida albicans CCH 442. The experiment in a line: In vitro antifungal MIC, Candida albicans CCH 442. The settings on record: CCH442; Candida albicans CCH 442; 35°-37° C., 48 hours; read-out: MIC. On the procedure:
as §1, §2, §3, §4, §5

What is called MIC is the smallest concentration in the dilution series that meets the test's criterion for growth inhibition. For the compound `CCCCCCCN1Sc2ccccc2[S+]1[O-]` (stereo not drawn) [Example 5, 2-n-heptyl-1,3,2-benzodithiazole-1-oxide], the MIC in test [1] was 0.39 µg/mL (≈ 1.45 µM); in test [2], 3.12 µg/mL (≈ 11.6 µM); in test [3], 0.39 µg/mL (≈ 1.45 µM); in the test with Candida albicans 579A it was 0.2 µg/mL (≈ 0.742 µM); with Candida kefyr ATCC 28838, 0.39 µg/mL (≈ 1.45 µM); in [4], 0.78 µg/mL (≈ 2.89 µM). Besides, the MIC in test [5] is 0.39 µg/mL (≈ 1.45 µM); in [6] it was 0.78 µg/mL (≈ 2.89 µM); in test [7], 0.78 µg/mL (≈ 2.89 µM); in the test with Candida albicans CCH 442, 0.78 µg/mL (≈ 2.89 µM).

Consider `CCCCCCCCN1Sc2ccccc2[S+]1[O-]` (stereo not drawn) [Example 6, 2-n-octyl-1,3,2-benzodithiazole-1-oxide], for which the MIC came out at 0.2 µg/mL (≈ 0.706 µM) in [1]; 3.12 µg/mL (≈ 11 µM) in test [2]; 0.2 µg/mL (≈ 0.706 µM) in test [3]; 0.2 µg/mL (≈ 0.706 µM) in the test with Candida albicans 579A; 0.1 µg/mL (≈ 0.353 µM) in the test with Candida kefyr ATCC 28838; 0.39 µg/mL (≈ 1.38 µM) in test [4]. Further, the MIC in [5] was 0.2 µg/mL (≈ 0.706 µM); in test [6], 0.1 µg/mL (≈ 0.353 µM); in test [7] it was 0.2 µg/mL (≈ 0.706 µM); in the test with Candida albicans CCH 442 it was 0.2 µg/mL (≈ 0.706 µM).

For the compound `CCCCCCCCCN1Sc2ccccc2[S+]1[O-]` (stereo not drawn) [Example 7, 2-n-nonyl-1,3,2-benzodithiazole-1-oxide], the MIC in [1] was 1.56 µg/mL (≈ 5.24 µM); in test [2] it was 6.25 µg/mL (≈ 21 µM); in test [3], 1.56 µg/mL (≈ 5.24 µM); with Candida albicans 579A it was 0.78 µg/mL (≈ 2.62 µM); with Candida kefyr ATCC 28838, 0.78 µg/mL (≈ 2.62 µM); in [4], 1.56 µg/mL (≈ 5.24 µM). In addition, the MIC in test [5] was found to be 0.78 µg/mL (≈ 2.62 µM); in [6] it was 1.56 µg/mL (≈ 5.24 µM); in test [7], 1.56 µg/mL (≈ 5.24 µM); in the test on Candida albicans CCH 442, 1.56 µg/mL (≈ 5.24 µM).

With `CCCCCCCCCCN1Sc2ccccc2[S+]1[O-]` (stereo not drawn) [Example 8, 2-n-decyl-1,3,2-benzodithiazole-1-oxide], the MIC came out at 3.12 µg/mL (≈ 10 µM) in [1]; 12.5 µg/mL (≈ 40.1 µM) in test [2]; 1.56 µg/mL (≈ 5.01 µM) in test [3]; 6.25 µg/mL (≈ 20.1 µM) in the test with Candida albicans 579A; 1.56 µg/mL (≈ 5.01 µM) with Candida kefyr ATCC 28838; 6.25 µg/mL (≈ 20.1 µM) in test [4]. Besides, the MIC in test [5] stood at 1.56 µg/mL (≈ 5.01 µM); in test [6] it was 6.25 µg/mL (≈ 20.1 µM); in test [7], 3.12 µg/mL (≈ 10 µM); with Candida albicans CCH 442, 6.25 µg/mL (≈ 20.1 µM).

For `C=CCN1Sc2ccccc2[S+]1[O-]` (stereo not drawn) [Example 10, 2-allyl-1,3,2-benzodithiazole-1-oxide], the MIC in test [1] worked out at 0.39 µg/mL (≈ 1.85 µM); in [2], 3.12 µg/mL (≈ 14.8 µM); in test [3], 0.39 µg/mL (≈ 1.85 µM); in the test with Candida albicans 579A it was 0.39 µg/mL (≈ 1.85 µM); in the test on Candida kefyr ATCC 28838, 0.2 µg/mL (≈ 0.946 µM); in test [4] it was 6.25 µg/mL (≈ 29.6 µM). Moreover, the MIC in test [5] is 0.2 µg/mL (≈ 0.946 µM); in test [6], 0.39 µg/mL (≈ 1.85 µM); in test [7], 0.78 µg/mL (≈ 3.69 µM); in the test on Candida albicans CCH 442, 0.78 µg/mL (≈ 3.69 µM).

In the case of `CC(C)(C)N1Sc2ccccc2[S+]1[O-]` (stereo not drawn) [Example 14, 2-t-butyl-1,3,2-benzodithiazole-1-oxide], the MIC worked out at 1.56 µg/mL (≈ 6.86 µM) in [1]; 3.12 µg/mL (≈ 13.7 µM) in test [2]; 1.56 µg/mL (≈ 6.86 µM) in test [3]; 1.56 µg/mL (≈ 6.86 µM) in the test with Candida albicans 579A; 0.2 µg/mL (≈ 0.88 µM) in the test with Candida kefyr ATCC 28838; 6.25 µg/mL (≈ 27.5 µM) in test [4]. For the same compound, the MIC in test [5] was 0.78 µg/mL (≈ 3.43 µM); in [6], 0.78 µg/mL (≈ 3.43 µM); in test [7], 3.12 µg/mL (≈ 13.7 µM); with Candida albicans CCH 442, 1.56 µg/mL (≈ 6.86 µM).
